Measurements as given in patent US20250099485A1, “COMPOSITIONS FOR PROMOTING HAIR GROWTH” (ESTETRA SRL, priority 2021, published 2025).

Assays:
Format in all cases: cell-based
[1] = tested on: human hair follicles (HF); experiment: Hair follicle organ culture: microscopic hair cycle staging; settings: vs vehicle
Description: 12-44 full-length frontotemporal hair follicles (HF) were obtained from four human female donors >50 years old. Donors were caucasian female subjects […], respectively (Donor 1: 12 temporal anagen HFs; Donor 2: 29; Donor 3: 44; Donor 4: 32). After microdissection from skin as described (Edelkamp et al., Methods Mol Biol, 2020, 2154:105-119; and Langan et al., Exp Dermatol, 2015, December; 24(12):903-1), HFs were placed in adequate culture medium and allowed a 24 h rest period to allow them to recover from the trauma of microdissection. Test substance (either vehicle (0.3% EtOH) or E4 at concentrations of 30 μM, 3 μM or 300 nM) was added to the medium at the end of the 24 h. Total culturing time was 5-7 days depending on the studied parameters and the experimental question. The experimental design for the hair follicle organ culture experiment is depicted in FIG. 12. Longer term culture experiments may be used to analyze the capacity to delay the onset of catagen.
Hair cycle staging and calculation of hair cycle score is indicative of hair cycle progression and anagen-catagen transition (Langan et al., Exp Dermatol, 2015). Hair cycle staging and hair cycle score was performed at the end of the culture. The hair cycle stage of each HF was determined according to several established macroscopic and microscopic parameters (Langan et al Exp Dermatol, 2015). For macroscopic hair cycle stage, bright field images of the living HFs were taken with a digital microscope (Keyence VHX 900). Microscopic hair cycle staging was determined using Ki 67/TUNEL immunohistology and Masson Fontana histochemistry. Hair cycle staging was analyzed by calculating the percentage of HFs in each hair cycle stage. Hair cycle score was determined by giving an arbitrary score to each hair cycle stage as following: anagen: 100, early catagen: 200, mid catagen: 300, late catagen: 400, dystrophic 500, with a higher score being indicative of a higher number of HFs in catagen.

[2] = tested on: mouse BMDM (bone marrow derived monocytes); experiment: Immune cell polarization (qPCR NOS2/ARG1), mouse BMDM; settings: activated mouse bone marrow derived monocytes, qPCR marker
Description: (§1) Immune cell polarization was evaluated in vitro using markers for M1/TH-1 (NOS2) and M2/TH-2 (ARG1) phenotype with human monocytes and mouse monocytes (BMDM bone marrow derived monocytes).
(§2) An experiment was conducted to evaluate the anti-inflammatory effects of E4 or vehicle (negative control). qPCR methodology was used to assess the effects of E2 and E4 on immune cell polarization using well validated marker of pro-inflammatory (NOS2 for MI/TH-1 phenotype) and anti-inflammatory (ARG1 for ME/TH-2 phenotype) activity.

[3] = tested on: Normal Human Epidermal Keratinocytes (NHEKs); experiment: Colonization of acellular area (IBIDI gap closure), keratinocytes; settings: 6 h and 24 h contact, cell gives time of significant effect; for NHEK Proliferation & Migration (colonization of acellular area vs ethanol control): absence of MMC; for NHEK Migration (+MMC) (colonization of acellular area vs ethanol control): presence of mitomycin C
Description: The study consists in an in vitro assay aiming to evaluate the properties of E4 and E2 at 4 concentrations each on keratinocytes and fibroblasts. In this assay, the measurement of the colonization of a standard acellular surface generated from a confluent monolayer of cells using a dedicated culture device (IBIDI chamber) is performed. The assay is performed in absence and in presence of a proliferation inhibitor to focus on cell proliferation and migration or on migration only, respectively.
The study was performed using cultures of Normal Human foreskin-derived Epidermal Keratinocytes (NHEKs, Lonza). The cells were grown in serum free Epilife medium (ThermoFisher Scientific) supplemented with Human Keratinocyte Growth Supplement (HKGS, ThermoFisher Scientific) and antibiotics. The cells were maintained in a humidified incubator at 37° C. with a 5% CO2 atmosphere.
Cells were plated in 2-well silicone inserts with a defined cell free gap (IBIDI chambers; IBIDI GmbH, 80209) that was previously inserted on 12-well culture plates. This culture device allows to create a standardized 500 μm±100 μm cell free gap for monitoring cell colonization. 24 h after seeding, when the culture reached high confluency, cells in the insert were treated, or not, with mitomycin C (MMC) at 10 μg/ml during 2 h. After these 2 hours, the insert was removed, and cells were treated with E2 or E4 in presence or not of MMC for additional 2 h. Then, if appropriate, the culture medium was removed and cells were treated with E2 or E4 for 22 h, in absence of MMC.
For the assay, keratinocytes were plated in Epilife medium without HKGS and all the treatments were performed in this medium. Fibroblasts were plated in DMEM medium containing only 2.5% of FBS and the treatments were performed in absence of FBS.
E2 and E4 were applied at 4 concentrations each (10^−7M, 10^−8M, 10^−9M, 10^−10M). In parallel, cells were treated with a positive control (HKGS 1% for human keratinocytes and PDGF-BB at 10 ng/ml for human fibroblasts).
To monitor cell colonization and to evaluate the gap closure rate, pictures of the gap were taken after different times: at time 0 h, corresponding to the beginning of the treatment with E2 or E4 and to the removal of the culture insert, at time 6 h and at time 24 h (corresponding to the end of the treatments with E2 or E4). Pictures were taken with a microscope Zeiss (Axiover 25-10× objective) and with a camera Invenio2EIII (DeltaPix—Lux-Optic). The colonized areas were quantified from the pictures by the use of the WimAsis platform—WimScratch software. For each insert, 3 pictures were taken at each time. As each condition was performed in triplicates, it means a total of 9 pictures per condition and per time point of acquisition

[4] = tested on: fibroblasts isolated from female C57Bl1/6 mice; experiment: Fibroblast monolayer scratch assay, mouse; settings: 10^−7 M, compared with E2
Description: Confluent wells of both primary keratinocytes and fibroblasts were subjected to a highly validated scratch wounding procedure (using a 1 mL sterile filter tip). Post-scratching, cells were rinsed with DPBS and cell-specific media containing treatments added to each well. Cells were imaged on a ptychographic live cell imaging platform (Livecyte 2TM, Phasefocus) for 24-48 hours. Automated tracking of individual unlabeled cells will be combined with 3D cell measurements to quantify a range of wound-relevant cell parameters including scratch closure rate.
Dose range finding experiments were conducted with E4 (10^−10M to 10^−6M) and E2 with and without Mitomycin C (MMC, to inhibit proliferation) using vehicle as negative controls.
The assay was performed in the phenol red-free cell culture media containing charcoal stripped fetal bovine serum, using fibroblasts isolated from female C57Bl1/6 mice and from surplus abdominal skin donated by three female donors.

human monocytes = experiment: Immune cell polarization (qPCR NOS2/ARG1), human monocytes; settings: activated human monocytes, qPCR marker
Description: as §1
Human blood was collected under national ethical approval with full informed written patient consent. Freshly isolated human blood was collected in EDTA vacutainer tubes, diluted 1:1 in PBS and gently layered onto histopaque (Merck). Tubes were immediately centrifuged at 100×g for 30 minutes and the whitish buffy layer formed at the histopaque interface aspirated and washed (centrifuged 100×g, 10 minutes) twice with sterile PBS. Untouched classical (CD14++, CD16−) monocytes were isolated from the washed buffy layer cells using the Miltenyi Classical Monocyte Isolation Kit, LS columns and a MidiMACs separator (Miltenyi). Isolated cells were seeded into tissue culture plates and stimulated to differentiate using PMA.
as §2

Compound: C[C@]12CC[C@@H]3c4ccc(O)cc4CC[C@H]3[C@@H]1[C@@H](O)[C@@H](O)[C@@H]2O [E4, 1,3,5 (10)-estratrien-3,15alpha,16alpha,17beta-tetrol]
- prolonged anagen (microscopic hair cycle staging) ([1]; 300 nM): tendentially
- prolonged anagen (microscopic hair cycle staging) ([1]; 3 μM): significantly
- prolonged anagen (microscopic hair cycle staging) ([1]; 30 μM): tendentially
- immune cell polarization, mouse BMDM [2]: switch from subtype M1 (pro-inflammatory) to subtype M2 (healing)
- NHEK Proliferation & Migration (colonization of acellular area vs ethanol control) ([3]; 10^−7M): significantly increased the colonization of the acellular area
- NHEK Migration (+MMC) (colonization of acellular area vs ethanol control) ([3]; 10^−7M): significantly increased the colonization of the acellular area
- NHEK Proliferation & Migration (colonization of acellular area vs ethanol control) ([3]; 10^−10M): significantly increased the colonization of the acellular area
- NHEK Migration (+MMC) (colonization of acellular area vs ethanol control) ([3]; 10^−10M): significantly increased the colonization of the acellular area
- in vitro wound closure, mouse fibroblasts scratch assay [4]: promotes in vitro wound closure to a similar extent as E2
- immune cell polarization, human monocytes (human monocytes): switch from subtype M1 (pro-inflammatory) to subtype M2 (healing)
